In patent US20080207952A1, “NOVEL THERAPEUTIC APPLICATIONS OF NATURAL POLY ISOPRENYLATED BENZOPHENONE DERIVATIVES AS DRUGS/MEDICAMENTS” (priority 2003, published 2008):
Where two headings read alike, the source gives them in different places.

Columns and labels:
[1] = test system: Propionibacterium acnes ATCC 11827; assay: Anti-microbial activity against Propionibacterium acnes (disk zone of inhibition on Reinforced Clostridial Agar); type: cell-based; conditions: 48 hours at 37° C., anaerobic
Method: Propionibacterium acnes was cultured in an anaerobic chamber (Coy Laboratory, USA with an automatic lock purge system). The growth standardization was ensured by culturing the organism in different culture media. The anaerobic conditions were ensured initially with Nitrogen gas and then a mixture of Nitrogen, Hydrogen and Carbon dioxide in a ratio of 80:10:10. A two gas tank arrangement was made wherein only Nitrogen was connected to the transfer chamber and the mixed gas to the main chamber using Gassing Manifold (Hrishi Biotech. Pune, India). The anaerobic media were prepared by heating the media while passing the mixture of gases Nitrogen and Carbon dioxide in a ratio of 4:1 simultaneously. A redox indicator reazurin=0.001% was added to the media. The indicator is colorless in an anaerobic environ and turns blue otherwise. It was dispensed to 30 ml, 20 ml and 10 ml vials sealed with rubber and aluminium clamps and sterilized by autoclaving at 121° C. for 15 minutes.
Propionibacterium acnes ATCC 11827 was sub cultured from broth cultures into vials containing fresh medium. The cultures were then incubated for 48 hours at 37° C. The optical density of the culture at 625 nm was maintained between 0.64 and 0.80 which corresponded to approximately 12×10^6 cells/ml (4.0 MC Mc Farland standard). The anti-microbial susceptibility testing was carried on Reinforced Clostridial Agar (RCA). 0.3 ml of P. acnes culture was inoculated into the culture plates. Culture plates were impregnated with disks comprising varying concentrations of the test naturally occuring poly isoprenylated benzophenone derivatives. The plates were incubated in anaerobic chambers at 37° C. for 48 hours. The test naturally occuring poly isoprenylated benzophenone derivatives were prepared with DMSO as vehicle. The controls included DMSO and Clindac A (Clindamycin Phosphate Gel 1% w/w). The zone of inhibition was measured and expressed in mm. (Table I)

[2] = biological target: T1, Elastase from Pig pancreas (Sus scrofa, UniProt P00772); assay: Anti-elastase activity (EnzChek elastase assay kit); type: biochemical; conditions: read after 30 minutes
T1 construct: purchased; host or cells: pig pancreas
Method: Principle: The assays were done using the EnzChek elastase assay kit. The substrate is DQ elastin soluble bovine neck ligament. DQ elastin is labeled with BODIPY FL dye. The non-fluorescent substrate can be digested by elastase to yield highly fluorescent fragments and in the presence of inhibitor, the fluorescence intensity is quenched. The fluorescence intensity was measured in a microplate reader ([…].) Methodology: Varying concentrations of the test material were pre-incubated for 10 minutes with the substrate DQ […]. Elastase from Pig pancreas enzyme was then added and the fluorescence intensity was measured after 30 minutes (Em: 485 nm and Ex: 520 nm.).

COX 2 = biological target: T2, COX 2 (Ovis aries, UniProt P79208); assay: COX inhibitor screening assay (Cayman, EIA), COX-2; type: biochemical; conditions: prostaglandins by EIA
T2 construct: purchased Cayman chemical company 560101
T2 sequence (P79208 17-603): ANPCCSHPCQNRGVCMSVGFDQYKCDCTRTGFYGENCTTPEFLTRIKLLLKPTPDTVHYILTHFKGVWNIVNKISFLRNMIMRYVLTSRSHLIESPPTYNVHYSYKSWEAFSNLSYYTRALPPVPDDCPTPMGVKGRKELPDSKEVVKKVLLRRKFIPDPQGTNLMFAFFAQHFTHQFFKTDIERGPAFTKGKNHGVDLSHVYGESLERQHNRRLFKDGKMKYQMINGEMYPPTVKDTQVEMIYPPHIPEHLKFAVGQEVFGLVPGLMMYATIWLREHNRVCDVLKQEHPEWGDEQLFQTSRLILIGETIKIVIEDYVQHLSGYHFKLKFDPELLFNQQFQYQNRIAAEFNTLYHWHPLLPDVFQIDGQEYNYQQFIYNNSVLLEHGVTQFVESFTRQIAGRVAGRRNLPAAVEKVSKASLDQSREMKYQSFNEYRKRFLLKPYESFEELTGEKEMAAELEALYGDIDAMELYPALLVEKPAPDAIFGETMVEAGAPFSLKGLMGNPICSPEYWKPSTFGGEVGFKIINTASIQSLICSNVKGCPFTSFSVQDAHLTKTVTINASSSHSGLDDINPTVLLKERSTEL

COX-1 = biological target: T3, COX-1 (Ovis aries, UniProt P05979); assay: COX inhibitor screening assay (Cayman, EIA), COX-1; type: biochemical; conditions: substrate Arachidonate, prostaglandins by EIA
T3 construct: purchased Cayman chemical company 560101
T3 sequence (P05979 25-600): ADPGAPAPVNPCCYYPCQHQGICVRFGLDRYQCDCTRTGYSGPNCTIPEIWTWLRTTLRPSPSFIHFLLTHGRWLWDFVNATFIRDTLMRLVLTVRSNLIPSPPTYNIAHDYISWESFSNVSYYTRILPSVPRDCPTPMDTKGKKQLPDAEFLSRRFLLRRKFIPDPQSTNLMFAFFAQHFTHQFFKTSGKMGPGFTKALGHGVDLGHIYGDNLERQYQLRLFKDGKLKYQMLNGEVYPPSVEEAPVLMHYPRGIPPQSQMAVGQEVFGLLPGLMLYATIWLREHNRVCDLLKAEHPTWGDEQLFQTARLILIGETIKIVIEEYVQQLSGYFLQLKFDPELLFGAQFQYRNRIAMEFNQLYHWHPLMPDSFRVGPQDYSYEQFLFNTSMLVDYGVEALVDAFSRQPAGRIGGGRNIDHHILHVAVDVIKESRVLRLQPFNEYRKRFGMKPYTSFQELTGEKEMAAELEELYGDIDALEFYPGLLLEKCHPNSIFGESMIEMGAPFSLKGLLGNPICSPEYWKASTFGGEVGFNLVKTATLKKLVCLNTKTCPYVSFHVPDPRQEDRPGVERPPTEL
Method: Principle: The COX inhibitor screening Assay was performed using the Cox inhibitory kit from Cayman chemical company (Catalog No. 560101) by Enzyme Immuno Assay method. Methodology: Enzyme (COX-1) is allowed to react on substrate Arachidonate in presence & absence of the inhibitor. The amount of prostaglandins (PGF2 ? ) produced by stannous chloride reduction of COX-derived PGFH2 are estimated by EIA (Cayman) using a broadly specific antibody that binds to all major prostaglandin compounds. The decrease in PGs released in presence of inhibitor is directly proportional to inhibition.

T1 sequence (P00772 27-266): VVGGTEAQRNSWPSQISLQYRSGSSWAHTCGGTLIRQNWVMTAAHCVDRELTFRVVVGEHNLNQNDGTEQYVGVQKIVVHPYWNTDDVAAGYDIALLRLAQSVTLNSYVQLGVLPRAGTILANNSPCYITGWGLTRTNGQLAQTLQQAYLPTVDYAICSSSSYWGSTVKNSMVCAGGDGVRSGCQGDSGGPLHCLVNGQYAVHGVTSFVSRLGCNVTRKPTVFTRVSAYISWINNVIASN

SMILES | Zone of Inhibition ([1]; Conc. of the sample 0.01%) [mm] | Zone of Inhibition ([1]; Conc. of the sample 0.03%) [mm] | Zone of Inhibition ([1]; Conc. of the sample 0.05%) [mm] | Zone of Inhibition ([1]; Conc. of the sample 0.1%) [mm] | Zone of Inhibition ([1]; Conc. of the sample 0.3%) [mm] | Zone of Inhibition ([1]; Conc. of the sample 0.5%) [mm] | Zone of Inhibition ([1]; Conc. of the sample 1.0%) [mm] | Zone of Inhibition ([1]; Conc. of the sample 2.0%) [mm] | Zone of Inhibition ([1]; Conc. of the sample 5.0%) [mm] | IC50 ([2]; Table III, read-out: IC50 (anti-elastase, sigmoidal dose response curve) (converted)) [µM] | IC50 ([2]; read-out: IC50 (anti-elastase) (converted)) [µM] | IC50 (COX 2) [µM] | IC50 (COX-1) [µM]
C=C(C)[C@@H](CC=C(C)C)C[C@@]12C[C@@H](CC=C(C)C)C(C)(C)[C@@](CC=C(C)C)(C(=O)C(C(=O)c3ccc(O)c(O)c3)=C1O)C2=O [Garcinol] | 7 | 8 | 10 | 11 | 14 | 16 | 18 | 19 | 20 | 496 | 498 | 36.5 | 144
CC(C)=CC[C@H]1C[C@@]23C[C@@H](CC=C(C)C)C(C)(C)[C@@](CC=C(C)C)(C(=O)C(C(=O)c4ccc(O)c(O)c4)=C2OC1(C)C)C3=O [Cambogin 90%, Cambogin] |  |  |  |  |  | 0 | 0 | 0 | 0 |  |  |  | 
